The values that follow come from ChEMBL document CHEMBL5518206, “Hit-to-Lead Identification and Validation of a Triaromatic Pleuromutilin Antibiotic Candidate” (J Med Chem, 2024).

As usually defined, the Tmax is the time at which the peak concentration occurs. A word on the CL/F: it is the apparent clearance, not corrected for the fraction that reaches the circulation. A word on the bioavailability: it is dose-corrected exposure relative to a reference, in per cent. A high value points to good availability. As usually defined, the Cmax is the highest concentration seen after dosing. The term half-life denotes how long it takes for the measured level to halve. Higher therefore signals slow decline. For orientation: clearance means the volume of plasma or blood freed of the substance per unit of time.

Active and inactive are the calls of the source. The rule behind the calls is not given here.

Data set [1] in a line: Cardio-toxicity in human assessed as QT prolongation by measuring increase in mean QTc.
In the next data set the test system is Escherichia coli. The data set is described as follows: Antibacterial activity against Escherichia coli assessed as inhibition of visible growth incubated for 20 to 24 hrs by microbroth serial dilution assay. It counts as functional, organism-based. The conditions noted are these: time 20-24 hrs.
The subject of data set [2] is Staphylococcus aureus. The data set is described as follows: Antibacterial activity against multi drug-resistant Staphylococcus aureus USA300 FPR3757 assessed as reduction in bacterial growth at 1 times of MIC concentration measured after 24 hrs by time-kill assay. Type of data set: functional, organism-based.
Data set [3] relates to Staphylococcus aureus. The data set is described as follows: Induction of resistant development in -(6-(6-(Piperazin-1-y1)-9H-purin-9-y)methyl)pyridin-3-y1)-1H-1,2,3-triazol-1-yl)-22-deoxypleuromutilin-16 passages resistance developed Staphylococcus aureus USA300 FPR3757 assessed as fold increase in MIC at sub-MIC concentration measured after 22 passages with conjugate by serial passage assay. Type of data set: functional.

The subject of data set [4] is Staphylococcus aureus. The data set is described as follows: Induction of resistant development in -(6-(6-(Piperazin-1-y1)-9H-purin-9-y)methyl)pyridin-3-y1)-1H-1,2,3-triazol-1-yl)-22-deoxypleuromutilin-16 passages resistance developed Staphylococcus aureus USA300 FPR3757 assessed as fold increase in MIC at sub-MIC concentration measured after 25 passages with conjugate by serial passage assay. Type of data set: functional.

In data set [5] the test system is Staphylococcus aureus. The data set is described as follows: Induction of resistant development in -(6-(6-(Piperazin-1-y1)-9H-purin-9-y)methyl)pyridin-3-y1)-1H-1,2,3-triazol-1-yl)-22-deoxypleuromutilin-16 passages resistance developed Staphylococcus aureus USA300 FPR3757 assessed as fold increase in MIC at sub-MIC concentration measured after 28 passages with conjugate by serial passage assay. Type of data set: functional.

Data set [6] relates to Staphylococcus aureus. The data set is described as follows: Induction of resistant development in lefamulin 5 passages resistance developed Staphylococcus aureus USA300 FPR3757 assessed as fold increase in MIC at sub-MIC concentration measured after 13 passages with conjugate by serial passage assay. It counts as functional.
Data set [7] relates to Staphylococcus aureus. The data set is described as follows: Induction of resistant development in lefamulin 5 passages resistance developed Staphylococcus aureus USA300 FPR3757 assessed as fold increase in MIC at sub-MIC concentration measured after 25 passages with conjugate by serial passage assay. Type of data set: functional.
Data set [8] has as its system Staphylococcus aureus. The data set is described as follows: Induction of resistant development in linezolid 5 passages resistance developed Staphylococcus aureus USA300 FPR3757 assessed as fold increase in MIC at sub-MIC concentration measured after 9 passages with conjugate by serial passage assay. Type of data set: functional.
Data set [9] concerns Staphylococcus aureus. The data set is described as follows: Induction of resistant development in linezolid 5 passages resistance developed Staphylococcus aureus USA300 FPR3757 assessed as fold increase in MIC at sub-MIC concentration measured after 13 passages with conjugate by serial passage assay. It counts as functional.
The subject of data set [10] is Staphylococcus aureus. The data set is described as follows: Induction of resistant development in linezolid 5 passages resistance developed Staphylococcus aureus USA300 FPR3757 assessed as fold increase in MIC at sub-MIC concentration measured after 18 passages with conjugate by serial passage assay. It counts as functional.
Data set [11] deals with Staphylococcus aureus. The data set is described as follows: Induction of resistant development in linezolid 5 passages resistance developed Staphylococcus aureus USA300 FPR3757 assessed as fold increase in MIC at sub-MIC concentration measured after 28 passages with conjugate by serial passage assay. Type of data set: functional.
A short description of data set [12]: Tmax in NMRI female mouse at 20 mg/kg, sc by HPLC analysis. It counts as ADME, organism-based. The conditions noted are these: in vivo.
Data set [13] is described as follows: AUC (0 to infinity) in NMRI female mouse at 20 mg/kg, sc by HPLC analysis. Type of data set: ADME, organism-based. The conditions noted are these: in vivo.
Data set [14] is described as follows: Clearance in NMRI female mouse at 20 mg/kg, sc by HPLC analysis. Conditions: in vivo. Type of data set: ADME, organism-based.
A short description of data set [15]: Volume of distribution in NMRI female mouse at 20 mg/kg, sc by HPLC analysis. It counts as ADME, organism-based. Conditions: in vivo.
Data set [16] can be described thus: Bioavailability in NMRI female mouse at 20 mg/kg, sc by HPLC analysis. It counts as ADME, organism-based. Conditions: in vivo.
Data set [17] in a line: Cmax in NMRI female mouse at 60 mg/kg, sc by HPLC analysis. It counts as ADME, organism-based. The conditions noted are these: in vivo.
Data set [18] can be described thus: Tmax in NMRI female mouse at 60 mg/kg, sc by HPLC analysis. Type of data set: ADME, organism-based. The conditions noted are these: in vivo.
A short description of data set [19]: Elimination rate constant in NMRI female mouse at 60 mg/kg, sc by HPLC analysis. The conditions noted are these: in vivo. It counts as ADME, organism-based.
A short description of data set [20]: Half life in NMRI female mouse at 60 mg/kg, sc by HPLC analysis. It counts as ADME, organism-based. The conditions noted are these: in vivo.
A short description of data set [21]: Bioavailability in NMRI female mouse at 60 mg/kg, sc by HPLC analysis. Conditions: in vivo. It counts as ADME, organism-based.
Data set [22] in a line: Tmax in NMRI female mouse at 30 mg/kg, iv by HPLC analysis. Type of data set: ADME, organism-based. The conditions noted are these: in vivo.
Data set [23] can be described thus: Volume of distribution in NMRI female mouse at 30 mg/kg, iv by HPLC analysis. Conditions: in vivo. It counts as ADME, organism-based.
The nature of data set [24]: Cmax in NMRI female mouse at 30 mg/kg, po by HPLC analysis. It counts as ADME, organism-based. The conditions noted are these: in vivo.
A short description of data set [25]: Clearance in pig plasma at 3 mg/kg, iv measured upto 240 mins by LC-MS/MS analysis. Type of data set: ADME, organism-based, Sus scrofa.
Data set [26] can be described thus: Tmax in pig urine at 3 mg/kg, iv measured upto 240 mins by LC-MS/MS analysis. It counts as ADME, organism-based, Sus scrofa.
Data set [27] in a line: Elimination rate constant in pig urine at 3 mg/kg, iv measured upto 240 mins by LC-MS/MS analysis. It counts as ADME, organism-based, Sus scrofa.
Data set [28] can be described thus: Cmax in pig urine at 10 mg/kg, po measured upto 240 mins by LC-MS/MS analysis. It counts as ADME, organism-based, Sus scrofa.
Data set [29] is described as follows: Half life in pig urine at 10 mg/kg, po measured upto 240 mins by LC-MS/MS analysis. Type of data set: ADME, organism-based, Sus scrofa.

For the compound `C=C[C@]1(C)C[C@@H](OC(=O)CS[C@@H]2CC[C@@H](N)C[C@H]2O)[C@]2(C)[C@H](C)CC[C@]3(CCC(=O)[C@H]32)[C@@H](C)[C@@H]1O` [LEFAMULIN], the QTc increase in [1] amounted to 10 ms. The outcome in the data set on Escherichia coli and in the data set with Staphylococcus aureus [2] was inactive. Also, the fold change (FC) was 32 with Staphylococcus aureus [3]; 64 with Staphylococcus aureus [4]; 128 in the data set with Staphylococcus aureus [5]; 32 in the data set on Staphylococcus aureus [6]; 64 in the data set with Staphylococcus aureus [7]; 8 in the data set on Staphylococcus aureus [8]. Moreover, the fold change (FC) with Staphylococcus aureus [9] amounted to 16; with Staphylococcus aureus [10], 16; in the data set on Staphylococcus aureus [11] it was 32.

For `C=C[C@]1(C)C[C@@H](OC(=O)Cn2cc(-c3ccc(Cn4cnc5c(N6CCNCC6)ncnc54)nc3)nn2)[C@]2(C)[C@H](C)CC[C@]3(CCC(=O)[C@H]32)[C@@H](C)[C@@H]1O`, the time of peak concentration (Tmax) in data set [12] is 0.25 h; in data set [18], 0.25 h; in data set [22], 0 h; in data set [26] it was 1 h. This compound also showed an AUC in data set [13] of 222 µg/mL/min. In data set [14], this compound showed a CL/F of 90.3 mL/min/kg. The Vd amounted to 17.1 L/kg in data set [15] and 3.5 L/kg in data set [23]. Also, the bioavailability in data set [16] was 52%; in data set [21] it was 33%. The Cmax in data set [17] was 2560 ng/mL; in [24], 8.2 ng/mL; in [28], 114 ng/mL. Further, the k el in data set [19] was 0.000102 s⁻¹. The half-life in data set [20] was 1.9 h; in data set [29], 2.2 h. In data set [25], this compound gave a clearance of 84.7 mL/min/kg. Besides, in data set [27], the k el at 4 h is 0.000418 s⁻¹.
